Test results reported in the NIST ThermoML archive (doi:10.1021/je049878m).
± gives the expanded uncertainty stated by the source.

Settings: Crystal

Row | Normal melting temperature | SMILES
1 | 151 ± 1 °C | CC(=O)Nc1ccc(C)cc1 [1-acetamido-4-methylbenzene]
2 | 144.8 ± 1 °C | COc1cc(OC)c(C(=O)O)cc1OC [2,4,5-trimethoxybenzoic acid]
3 | 174.5 ± 1 °C | Nc1ccccc1O [2-hydroxybenzenamine]
4 | 123.7 ± 1 °C | Nc1cccc(O)c1 [3-hydroxybenzenamine]
5 | 109.6 ± 1 °C | CC(=O)Nc1ccccc1C [o-acetotoluide]

Row | SMILES | Normal melting temperature
6 | COc1cc(C(=O)O)cc(OC)c1OC [3,4,5-trimethoxybenzoic acid] | 171.4 ± 1 °C
